Where “and” joins values, the source holds several entries; their conditions need not be identical. Equal entries are not always repeated. Entries after “also recorded” stand apart in the source; their conditions may differ.
What was measured:
RSV A2 [1] = assay: Immunofluorescence staining and microscopy of RSV F and N
Method: HEp-2 cells were seeded to No. 1 glass coverslips (1014355117NR1, Thermo Fisher Scientific) for high-resolution confocal microscopy, or black, flat, microclear-bottom 96-well plates (655096, Greiner Bio-One) for high-throughput quantification of RSV F and N immunofluorescence. Cells were infected with RSV A2 (MOI 0.5). At 48 h p.i., cells were fixed in 4% paraformaldehyde for 30 min and permeabilized with 0.3% Triton X-100 for 10 min at room temperature. F and N proteins were probed using mouse anti-RSV F (RSV3216) and mouse anti-RSV N (RSV3132) mAbs (Bio-Rad Antibodies) diluted 1:500 in PBS + 0.1% Tween-20 (PBST), or mouse anti-RSV F mAb Alexa Fluor 488 conjugate (Millipore Sigma, 133/1H) diluted 1:200 in PBST over a 1-h incubation at room temperature. This was followed by detection with secondary anti-mouse Fab fragments conjugated to Alexa Fluor 488 (4408) or 647 (4410) (Cell Signaling Technology) diluted 1:1000 in PBST over a 1-h incubation at room temperature. Fluorescent images were acquired using either the Cellomics ArrayScan VTI HCS Reader at ×10 magnification (for quantification) or Olympus IX81 Spinning Disk Confocal microscope at ×60 magnification with oil immersion (for high-resolution images). F and N immunofluorescence was quantified in CellProfiler and normalized to total nuclear count.

RSV-GFP [2] = assay: RSV-GFP infection of HEp-2 cells, automated imaging, dose-response; type: cell-based, Respiratory syncytial virus; conditions: for EC50: HEp-2, 2 h; for inhibition at 0.75 µM: read-out: RSV-GFP inhibition (%), log Conc (uM) -0.12494; for inhibition at 0.5 µM: read-out: RSV-GFP inhibition (%), log Conc (uM) -0.30103; for inhibition at 0.05 µM: read-out: RSV-GFP inhibition (%), log Conc (uM) -1.30103; for RSV-GFP inhibition (%): 48 h p.i.; for inhibition at 0.25 µM: read-out: RSV-GFP inhibition (%), log Conc (uM) -0.60206; for inhibition at 0.1 µM: read-out: RSV-GFP inhibition (%), log Conc (uM) -1; for inhibition at 0.01 µM: read-out: RSV-GFP inhibition (%), log Conc (uM) -2
Method: HEp-2 cells were seeded to black, flat, microclear-bottom 96-well plates (655096, Greiner Bio-One) at a density of 5000 cells per well and incubated at 37 °C/5% CO2 overnight. The following morning, cells were washed twice with serum-free EMEM and treated with RSV-GFP (MOI 0.5) in a minimal volume of serum-free media for 90 min under frequent agitation. Unbound virus was then removed and replaced with fresh serum-containing EMEM. All drug additions were performed 2 h post-viral exposure, unless otherwise stated. Nuclei were stained with Hoechst 33342 (H3570, Thermo Fisher Scientific) (at a final concentration of 1 µg/mL) 48 h p.i. and imaging was performed using the Cellomics ArrayScan VTI HCS Reader at ×10 magnification (SPARC BioCentre, The Hospital for Sick Children, Toronto, ON).
Automated quantification of infection rates from fluorescent images were performed in CellProfiler (v2.2.0)[86]. Major steps in the image analysis pipeline included: (1) background subtraction and smoothing, (2) segmentation of nuclei, (3) segmentation of GFP-fluorescent area, (4) object masking, and (5) measurement of nuclear number, size, and intensity. Infection rate was quantified from the ratio of nuclei within GFP-fluorescent area to the total number of nuclei (Fig. 1b). This method of analysis accounts for in vitro syncytium formation induced by RSV, whereby a single infected cell may arise from the fusion of multiple cells. Mean nuclear fluorescent intensity and size was quantified as a measure of cell viability. […]

RSV-GFP [3] = assay: microbe, parasite or virus in culture; type: cell-based, Respiratory syncytial virus; conditions: human respiratory syncytial virus, HEp-2, read-out: RSV-GFP inhibition (%)
Method: The following morning, cells were washed twice with serum-free EMEM and treated with RSV-GFP (MOI 0.5) in a minimal volume of serum-free media for 90 min under frequent agitation. Unbound virus was then removed and replaced with fresh serum-containing EMEM. All drug additions were performed 2 h post-viral exposure, unless otherwise stated.
Automated quantification of infection rates from fluorescent images were performed in CellProfiler (v2.2.0)[86]. Major steps in the image analysis pipeline included: (1) background subtraction and smoothing, (2) segmentation of nuclei, (3) segmentation of GFP-fluorescent area, (4) object masking, and (5) measurement of nuclear number, size, and intensity. Infection rate was quantified from the ratio of nuclei within GFP-fluorescent area to the total number of nuclei (Fig. 1b). This method of analysis accounts for in vitro syncytium formation induced by RSV, whereby a single infected cell may arise from the fusion of multiple cells. Mean nuclear fluorescent intensity and size was quantified as a measure of cell viability.
The MicroSource […] Collection (Discovery Systems Inc.) consisting of 2400 compounds was screened using the previously outlined RSV-GFP infection assay protocol. Robot-assisted addition of drugs was performed within 1 h of RSV-GFP infection and infection rates were assayed 48 h p.i. Drugs were provided as 10 mM stocks in DMSO and serial diluted to a final concentration of 10 µM, resulting in a final DMSO concentration of 0.1% v/v. […] Hits were selected based on the criteria that: (a) the tested drug caused a >50% reduction in infection rate and (b) was not overtly cytotoxic (<10% change in mean nuclear intensity relative to DMSO control). Z-factors were calculated on a per-plate basis to monitor assay quality.

RSV A2 [4] = assay: Quantification of infectious virus production (plaque assay); type: cell-based, Respiratory syncytial virus; conditions: Fig 7A; Rhosin 50 uM, EHT 1864 20 uM, ML 141 10 uM; replicate values
Method: HEp-2 cells were seeded to six-well plates at a density of 1 × 10^6 cells per well and incubated overnight at 37 °C/5% CO2. The following morning, cells were infected with RSV A2 (MOI 1.0) and treated with drugs 2 h post-viral exposure. The supernatant, containing progeny virions, was collected 48 h p.i., snap frozen, and stored at −80 °C. Quantification of infectious virus particles was performed by a traditional plaque assay. HEp-2 cells were seeded to six-well plates at a density of 1.5 × 10^6 cells per well and grown to 90% confluency. Cells were incubated with serial dilutions of the collected supernatants for 90 min at 37 °C/5% CO2 under frequent agitation. The inoculant was then removed and replaced with 4 mL of 1:1 4% FBS DMEM-F12/1% agarose. Plates were incubated for 5 days at 37 °C/5% CO2. Cells were then fixed with 10% formalin for 30 min at room temperature. After fixation and removal of agarose from each well, the cells were stained with 0.05% neutral red and plaques were quantified under a dissecting microscope.

[5] = human respiratory syncytial virus, HEp-2, RSV-GFP MOI 0.5, treated 2 h post-viral exposure
[6] = human respiratory syncytial virus, HEp-2, 48 h, replicate values
[7] = GGPP 10.0 µM in the presence of atorvastatin 3.5 µM

## CC1(O)CCOC(=O)C1 (racemic) [Mevalonolactone, DL-mevalonolactone]
RSV A2 [1]; mevalonolactone 1 mM with atorvastatin 3.5 µM or simvastatin 1.5 µM
  effect of mevalonolactone co-treatment in statin-treated cells: restore viral protein intensity to DMSO (0.1% v/v) baseline

## O=c1cc(-c2ccccc2)oc2ccc(O)cc12 [6-Hydroxyflavone]
RSV-GFP [2]; [5]
  EC50: 705 nM
RSV-GFP [2]; [6]
  inhibition at 0.75 µM: 56.1%
  inhibition at 0.5 µM: 36.6%
  inhibition at 0.05 µM: 11.4%
RSV-GFP [3]
  inhibition at 10 µM: 74.1%

## CNc1nc(C)c(-c2nc(Nc3cccc(S(N)(=O)=O)c3)ncc2F)s1 [CDKI-73]
RSV-GFP [2]; CDKI-73 0.5 µM or 1.0 µM
  effect on RSV-GFP infection rate: did not reduce infection rate; also recorded: did not reduce RSV-GFP infection rates
RSV-GFP [2]; CDKI-73 0.5 uM, replicate values
  RSV-GFP inhibition (%): 15.9529% and 3.2849% and 2.901% and 0.6729%
RSV-GFP [2]; CDKI-73 1 uM, replicate values
  RSV-GFP inhibition (%): 5.404% and 7.553% and -1.2228% and 1.11%

## C[C@H]1O[C@@H](O[C@H]2[C@@H](O)C[C@H](O[C@H]3[C@@H](O)C[C@H](O[C@H]4CC[C@@]5(C)[C@H](CC[C@@H]6[C@@H]5CC[C@]5(C)[C@@H](C7=CC(=O)OC7)CC[C@]65O)C4)O[C@@H]3C)O[C@@H]2C)C[C@H](O)[C@@H]1O [Digitoxin]
RSV-GFP [2]; [5]
  EC50: 11 nM
RSV-GFP [2]; [6]
  inhibition at 0.5 µM: 99.9%
  inhibition at 0.25 µM: 98.6%
  inhibition at 0.1 µM: 78.3%
  inhibition at 0.05 µM: 73%
  inhibition at 0.01 µM: 55%
RSV-GFP [2]; human respiratory syncytial virus, HEp-2, 48 h, read-out: RSV-GFP inhibition (%), log Conc (uM) -0.75696, replicate values
  inhibition at […]: 99.8%
RSV-GFP [2]; human respiratory syncytial virus, HEp-2, 48 h, read-out: RSV-GFP inhibition (%), log Conc (uM) -1.39794, replicate values
  inhibition at 0.04 µM: 78.7%
RSV-GFP [2]; human respiratory syncytial virus, HEp-2, 48 h, read-out: RSV-GFP inhibition (%), log Conc (uM) -1.52288, replicate values
  inhibition at 0.03 µM: 82%
RSV-GFP [2]; human respiratory syncytial virus, HEp-2, 48 h, read-out: RSV-GFP inhibition (%), log Conc (uM) -1.69897, replicate values
  inhibition at 0.02 µM: 68.5%
RSV-GFP [3]
  inhibition at 10 µM: 98.8%

## C[C@H]1O[C@@H](O[C@H]2[C@@H](O)C[C@H](O[C@H]3[C@@H](O)C[C@H](O[C@H]4CC[C@@]5(C)[C@H](CC[C@@H]6[C@@H]5C[C@@H](O)[C@]5(C)[C@@H](C7=CC(=O)OC7)CC[C@]65O)C4)O[C@@H]3C)O[C@@H]2C)C[C@H](O)[C@@H]1O [Digoxin]
RSV-GFP [2]; [5]
  EC50: 26 nM
RSV-GFP [2]; [6]
  inhibition at 0.75 µM: 99.9%
  inhibition at 0.5 µM: 100%
  inhibition at 0.25 µM: 86.5%
  inhibition at 0.1 µM: 85.5%
  inhibition at 0.05 µM: 68.3%
  inhibition at 0.01 µM: 25.2%
RSV-GFP [2]; human respiratory syncytial virus, HEp-2, 48 h, read-out: RSV-GFP inhibition (%), log Conc (uM) -2.12494, replicate values
  inhibition at 0.0075 µM: 18%
RSV-GFP [2]; human respiratory syncytial virus, HEp-2, 48 h, read-out: RSV-GFP inhibition (%), log Conc (uM) -3, replicate values
  inhibition at 0.001 µM: 9.48%
RSV-GFP [3]
  inhibition at 10 µM: 99.1%

## C[C@]12CC[C@@H]3c4ccc(O)cc4CC[C@H]3[C@@H]1CC[C@@H]2O [Estradiol, 17β-Estradiol]
RSV-GFP [2]; [5]
  EC50: 1620 nM
RSV-GFP [2]; [6]
  inhibition at 0.5 µM: 7.41%
RSV-GFP [3]
  inhibition at 10 µM: 70.7%

## CC(C)=CCC/C(C)=C/CC/C(C)=C/CC/C(C)=C/COP(=O)(O)OP(=O)(O)O.N.N.N [GGPP, geranylgeranyl pyrophosphate ammonium salt]
RSV A2 [1]; [7]
  restoration of F protein intensity: 33.4 ± 3.5%
  restoration of N protein intensity: 50.4 ± 1.6%

## O=C(Nc1ccc([N+](=O)[O-])cc1Cl)c1cc(Cl)ccc1O [Niclosamide]
RSV-GFP [2]; [5]
  EC50: 443 nM
RSV-GFP [2]; [6]
  inhibition at 0.75 µM: 73.9%
  inhibition at 0.5 µM: 63.8%
RSV-GFP [2]; human respiratory syncytial virus, HEp-2, 48 h, read-out: RSV-GFP inhibition (%), log Conc (uM) -0.25964, replicate values
  inhibition at 0.55 µM: 59.2%
RSV-GFP [2]; human respiratory syncytial virus, HEp-2, 48 h, read-out: RSV-GFP inhibition (%), log Conc (uM) -0.34679, replicate values
  inhibition at 0.45 µM: 30.5%
RSV-GFP [2]; human respiratory syncytial virus, HEp-2, 48 h, read-out: RSV-GFP inhibition (%), log Conc (uM) -0.39794, replicate values
  inhibition at 0.4 µM: 21.3%
RSV-GFP [2]; human respiratory syncytial virus, HEp-2, 48 h, read-out: RSV-GFP inhibition (%), log Conc (uM) -0.45593, replicate values
  inhibition at 0.35 µM: 18.9%
RSV-GFP [2]; human respiratory syncytial virus, HEp-2, 48 h, read-out: RSV-GFP inhibition (%), log Conc (uM) -0.52288, replicate values
  inhibition at 0.3 µM: 4.57%
RSV-GFP [2]; human respiratory syncytial virus, HEp-2, 48 h, read-out: RSV-GFP inhibition (%), log Conc (uM) -0.69897, replicate values
  inhibition at 0.2 µM: 1.85%
RSV-GFP [3]
  inhibition at 10 µM: 93.9%

## C#C[C@]1(O)CC[C@H]2[C@@H]3CCC4=CC(=O)CC[C@@H]4[C@H]3CC[C@@]21C [Norethindrone, 19-Norethindrone]
RSV-GFP [2]; [5]
  EC50: 705 nM
RSV-GFP [2]; human respiratory syncytial virus, HEp-2, 48 h, read-out: RSV-GFP inhibition (%), log Conc (uM) -0.09691, replicate values
  inhibition at 0.8 µM: 61.9%
RSV-GFP [2]; human respiratory syncytial virus, HEp-2, 48 h, read-out: RSV-GFP inhibition (%), log Conc (uM) -0.22185, replicate values
  inhibition at 0.6 µM: 41.8%
RSV-GFP [2]; [6]
  inhibition at 0.5 µM: 19.2%
RSV-GFP [3]
  inhibition at 10 µM: 75.2%

## N[C@H](Cc1c[nH]c2ccccc12)C(=O)N/N=C/c1ccc2nccnc2c1 [Rhosin]
RSV A2 [4]
  Virus titre (log10 PFU/mL): 5.176 log10 PFU/mL and 5.204 log10 PFU/mL and 5.079 log10 PFU/mL and 5.322 log10 PFU/mL

## CC(C)[C@@H]1NC(=O)[C@H](C)OC(=O)[C@@H](C(C)C)NC(=O)[C@@H](C(C)C)OC(=O)[C@H](C(C)C)NC(=O)[C@H](C)OC(=O)[C@@H](C(C)C)NC(=O)[C@@H](C(C)C)OC(=O)[C@H](C(C)C)NC(=O)[C@H](C)OC(=O)[C@@H](C(C)C)NC(=O)[C@@H](C(C)C)OC1=O [Valinomycin]
RSV-GFP [2]; human respiratory syncytial virus
  EC50: 39 nM
RSV-GFP [2]; [6]
  inhibition at 0.75 µM: 74.6%
  inhibition at 0.5 µM: 71.6%
  inhibition at 0.25 µM: 78.6%
  inhibition at 0.1 µM: 76.7%
  inhibition at 0.05 µM: 77.4%
RSV-GFP [2]; human respiratory syncytial virus, HEp-2, 48 h, read-out: RSV-GFP inhibition (%), log Conc (uM) -1.04576, replicate values
  inhibition at 0.09 µM: 77.4%
RSV-GFP [2]; human respiratory syncytial virus, HEp-2, 48 h, read-out: RSV-GFP inhibition (%), log Conc (uM) -1.22185, replicate values
  inhibition at 0.06 µM: 71.2%
RSV-GFP [3]
  inhibition at 10 µM: 88%

## ML 141
RSV A2 [4]
  Virus titre (log10 PFU/mL): 5 log10 PFU/mL and 5.079 log10 PFU/mL and 5.176 log10 PFU/mL and 5.204 log10 PFU/mL
